From patent US10314831B2, “RAC1 inhibitors of neurofibroma formation” (Indiana University Research and Technology Corporation, priority 2014, dated 2019)

What was measured:
Rac1 = Rac1 (Homo sapiens, UniProt P63000); details: previous work; cited from earlier work
Rac1-GTP = target: T1, Rac1-GTP (Mus musculus, UniProt P63001); assay: PDGF-mediated Rac1-GTP activity in Nf1-/- Schwann cells (immunoprecipitation and activity assay); assay type: cell-based; details: murine-derived neurofibroma cells (Nf1-/- Schwann cells), 50 ng/mL PDGF for 2 minutes
T1 construct: endogenous in cells; host or cells: murine-derived Nf1-/- Schwann cells
Experimental: FIG. 2 depicts the inhibition of Rac1-GTP activity by compound C20-26. Compound C20-26 inhibits PDGF-mediated Rac1-GTP activity at 40 nM in murine-derived neurofibroma cells. After 24-hour starvation in 0.5% BSA/DMEM, Nf1−/−Schwann cells were pretreated with compound C20-26 at the indicated concentrations. Cells were then stimulated with 50 ng/mL PDGF for 2 minutes and harvested for immunoprecipitation.
(§1) FIGS. 3A-3C depicts various properties of compound C20. FIG. 3A) Compound C20 inhibits PDGF-mediated Rac1-GTP activity at 0.5 μM in murine-derived neurofibroma cells. After 24-hour starvation in 0.5% BSA/DMEM, Nf1−/− Schwann cells were pretreated with compound C20 at the indicated concentrations. Cells were then stimulated with 50 ng/mL PDGF for 2 minutes and harvested for immunoprecipitation and activity assays. FIG. 3B) Compound C20 specifically interfered with Rac1-Tiam1 interactions at 15 nM in a GEF assay using purified protein. FIG. 3C) In [^3H]-thymidine dose-inhibition experiments, murine derived Nf1−/− Schwann cells were pre-treated with increasing quantities of the known Rac1 inhibitor NSC23766 or with putative Rac1 inhibitor C20.

Rac1-Tiam1 interactions = target: T2, Rac1-Tiam1 interactions (Homo sapiens, UniProt P63000); assay: Rho-GEF exchange assay with purified Tiam1 and Rac1 (Cytoskeleton BK100 kit); assay type: biochemical
T2 construct: purchased Cytoskeleton, Inc. BK100
Experimental: as §1
Rho-GEF exchange experiments using a commercially available kit that measures guanine exchange fluorescence quantification (Cat #BK100; Cytoskeleton, Inc., Denver, Colo.) were conducted to measure GEF inhibition by C20.

Nf1-/- Schwann cells = assay: PDGF-mediated proliferation of NF1-deficient Schwann cells ([3H]-thymidine); assay type: cell-based, murine
Experimental: as §1
In initial screens assaying platelet derived growth factor (PDGF)-mediated proliferation in NF1-deficient Schwann cells, compound C20 (KM04569, Ryan Scientific) was identified. C20 inhibited Schwann cell proliferation at 2 μM and Rac1GTP activity at 0.5 μM (FIGS. 3A-C). The structure of C20 is shown below:
Several analogs of C20 were identified or synthesized and were then screened using the NF1−/− Schwann cell proliferation assay. The initial set of thirteen analogs were developed (Table 1; First SAR) by making substitutions in the C and D pharmacophore elements.

Ras-GTP = Ras-GTP activation; assay type: cell-based; details: data not shown
Text: (§2) No effect of C20 on Ras-GTP activation or Akt phosphorylation was observed (data not shown). However, C20 mitigated Erk1/2 phosphorylation.

Akt = Akt phosphorylation; assay type: cell-based; details: data not shown
Text: as §2

Erk1/2 = Erk1/2 phosphorylation; assay type: cell-based
Text: as §2

[1] = previous work; cited from earlier work

SMILES: CCn1c2ccccc2c2cc(Nc3ccnc(NCCCN4CCOCC4)n3)ccc21 [EHop-016]
- concentration inhibiting Rac1 (Rac1): 1.1 µM

SMILES: O=S(=O)(Oc1cc(Cl)cc(Cl)c1)c1ccc(-c2ccccn2)s1 [Compound C20]
- concentration inhibiting PDGF-mediated Rac1-GTP activity (Rac1-GTP): 0.5 µM
- concentration interfering with Rac1-Tiam1 interactions (Rac1-Tiam1 interactions; GEF assay using purified protein): 15 nM
- GEF inhibition (Rac1-Tiam1 interactions; incubating Tiam1 and Rac1): dose-dependent GEF inhibition
- IC50 (Nf1-/- Schwann cells; Mus musculus, murine derived Nf1-/- Schwann cells, approximate, read-out: IC50, [3H]-thymidine dose-inhibition): ~2000 nM
- concentration inhibiting Schwann cell proliferation (Nf1-/- Schwann cells; PDGF-mediated proliferation, NF1-deficient Schwann cells): 2 µM
- effect on Ras-GTP activation (Ras-GTP): No effect
- effect on Akt phosphorylation (Akt): No effect
- effect on Erk1/2 phosphorylation (Erk1/2): mitigated

SMILES: CCN(CC)CCCC(C)Nc1nc(C)cc(Nc2ccc3nc(C)cc(N)c3c2)n1 (stereo not shown) [NSC23766]
- toxicity [1]: high toxicity
